Laboratory results published in ChEMBL document CHEMBL1125700, “Conformational properties of semirigid antipsychotic drugs: the pharmacophore for dopamine D-2 antagonist activity” (J Med Chem, 1991).
Where “and” joins values, the source holds several entries; their conditions need not be identical. Identical values can stand only once.

Experiments:
[1] = target: Muscarinic acetylcholine receptor; assay: The compound was tested for binding affinity against muscarinic acetylcholine receptor using QNB as radioligand; format: protein assay
[2] = target: T1, Sigma non-opioid intracellular receptor 1 (Homo sapiens, UniProt Q99720); assay: The compound was tested for binding affinity against sigma receptor using DTG as radioligand
T1 sequence (Q99720 whole entry): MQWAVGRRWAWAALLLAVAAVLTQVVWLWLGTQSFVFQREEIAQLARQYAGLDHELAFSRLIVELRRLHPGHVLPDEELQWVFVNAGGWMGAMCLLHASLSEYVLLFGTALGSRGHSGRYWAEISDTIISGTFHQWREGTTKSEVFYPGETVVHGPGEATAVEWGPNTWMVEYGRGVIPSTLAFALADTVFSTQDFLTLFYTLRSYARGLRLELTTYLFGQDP

[3] = target: T2, Alpha-1A adrenergic receptor (Homo sapiens, UniProt P35348); assay: The compound was tested for binding affinity against Alpha-1 adrenergic receptor using WB-4101 as radioligand
T2 sequence (P35348 whole entry): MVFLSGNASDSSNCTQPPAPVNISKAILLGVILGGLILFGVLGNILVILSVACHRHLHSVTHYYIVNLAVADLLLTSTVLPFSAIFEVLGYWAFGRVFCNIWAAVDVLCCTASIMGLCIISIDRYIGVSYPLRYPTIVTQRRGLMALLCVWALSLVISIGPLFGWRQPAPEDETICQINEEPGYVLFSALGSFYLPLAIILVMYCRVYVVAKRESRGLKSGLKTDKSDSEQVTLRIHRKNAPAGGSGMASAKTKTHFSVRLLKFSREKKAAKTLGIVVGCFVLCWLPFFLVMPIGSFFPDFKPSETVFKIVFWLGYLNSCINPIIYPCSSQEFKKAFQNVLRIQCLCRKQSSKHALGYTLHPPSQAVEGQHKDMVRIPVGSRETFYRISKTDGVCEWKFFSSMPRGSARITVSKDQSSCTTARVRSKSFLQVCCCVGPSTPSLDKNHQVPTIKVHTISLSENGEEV

D(1A) dopamine receptor [4] = target: T3, D(1A) dopamine receptor (Homo sapiens, UniProt P21728); assay: The compound was tested for binding affinity against Dopamine receptor D1 using SCH-23390 as radioligand
T3 sequence (P21728 whole entry): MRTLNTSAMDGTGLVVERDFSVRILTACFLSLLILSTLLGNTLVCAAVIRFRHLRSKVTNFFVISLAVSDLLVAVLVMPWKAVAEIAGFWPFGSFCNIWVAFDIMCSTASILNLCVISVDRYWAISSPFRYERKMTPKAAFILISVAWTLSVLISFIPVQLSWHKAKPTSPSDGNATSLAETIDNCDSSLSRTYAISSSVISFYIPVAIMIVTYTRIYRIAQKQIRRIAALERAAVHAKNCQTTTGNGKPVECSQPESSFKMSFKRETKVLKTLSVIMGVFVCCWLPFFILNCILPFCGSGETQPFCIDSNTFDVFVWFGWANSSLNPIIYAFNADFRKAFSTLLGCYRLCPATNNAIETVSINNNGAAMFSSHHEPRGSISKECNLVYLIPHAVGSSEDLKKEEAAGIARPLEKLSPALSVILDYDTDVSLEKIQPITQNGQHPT

[5] = target: Muscarinic acetylcholine receptor; assay: The compound was tested for binding affinity against Muscarinic acetylcholine receptor using QNB as radioligand; format: protein assay
[6] = target: T1, Sigma non-opioid intracellular receptor 1; assay: The compound was tested for binding affinity against Sigma opioid receptor using DTG as radioligand
D(2) dopamine receptor [7] = target: T4, D(2) dopamine receptor (Homo sapiens, UniProt P14416); assay: The compound was tested for binding affinity against Dopamine receptor D2 using raclopride as radioligand
T4 sequence (P14416 whole entry): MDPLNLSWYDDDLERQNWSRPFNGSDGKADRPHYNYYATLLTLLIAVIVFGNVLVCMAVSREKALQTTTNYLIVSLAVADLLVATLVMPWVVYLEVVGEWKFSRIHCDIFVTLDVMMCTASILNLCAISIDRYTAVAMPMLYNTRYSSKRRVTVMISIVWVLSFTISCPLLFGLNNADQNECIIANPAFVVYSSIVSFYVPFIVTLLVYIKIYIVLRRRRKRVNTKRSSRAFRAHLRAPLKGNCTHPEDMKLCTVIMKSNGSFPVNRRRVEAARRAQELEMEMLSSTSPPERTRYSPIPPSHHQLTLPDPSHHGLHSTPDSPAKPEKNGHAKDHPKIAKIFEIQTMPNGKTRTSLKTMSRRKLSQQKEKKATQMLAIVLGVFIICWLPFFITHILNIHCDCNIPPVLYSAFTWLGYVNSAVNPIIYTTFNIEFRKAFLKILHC

[8] = target: Serotonin 2 (5-HT2) receptor (Homo sapiens, UniProt P41595+P28223+P28335); assay: The compound was tested for binding affinity against 5-hydroxytryptamine 2 receptor using ketanserin as radioligand; format: protein assay
D(2) dopamine receptor [9] = target: T4, D(2) dopamine receptor; assay: The compound was tested for binding affinity against dopamine receptor D2 using raclopride as radioligand
D(1A) dopamine receptor [10] = target: T3, D(1A) dopamine receptor; assay: Binding affinity determined in radioreceptor binding assay by using [3H]SCH-23390 radioligand against dopamine receptor D1

Row | Ki [1] | Ki [2] | Ki [3] [µM] | Ki (D(1A) dopamine receptor [4]) [µM] | Ki [5] [µM] | Ki [6] [µM] | Ki (D(2) dopamine receptor [7]) [µM] | Ki [8] [µM] | Ki (D(2) dopamine receptor [9]) [µM] | Ki (D(1A) dopamine receptor [10]) [µM] | Structure (SMILES)
1 | 0.094 µM and 0.043 µM | 0.55 µM and 1.4 µM |  |  |  |  |  |  |  |  | CN(C)C1C=CC2(CC1)c1ccccc1CCc1ccc(Cl)cc12 (centres undefined)
2 |  |  | 0.061 | 0.0031 | 0.0072 | 0.8 | 0.0065 | 0.0013 |  |  | CN(C)C1C=CC2(CC1)c1ccccc1C=Cc1ccc(Cl)cc12 (single isomer, unassigned; enantiomer 2)
3 | 0.0043 µM | 1.6 µM | 0.036 |  |  |  |  | 0.001 | 0.00066 | 0.0003 | CN(C)C1C=CC2(CC1)c1ccccc1C=Cc1ccc(Cl)cc12 (centres undefined)
